Test results taken from a melting point compilation (Tetko et al.; mined from patent text by program, amines drawn as free bases though some values may be those of a salt).

`Fc1ccc(Nc2ncnc3cnc(OC4CCOC4)nc23)cc1Cl` (stereo not given) showed a melting point of 163 to 165 °C.
Molecule `COc1ccc(Cn2cnc3c(-c4ccco4)nc(N(C)C)nc32)cc1` has a melting point of 163 to 164 °C.
`O=Cc1ccccc1-c1ccc(CBr)cc1` showed a melting point of 63 to 66 °C.
Work on `CNC(=O)C(NC(=O)c1cn(C)nc1C(F)(F)F)C(COC(C)=O)c1ccccc1` (stereo not given) yielded a melting point of 175 °C.
`CCCCCS(=O)(=O)NC(=O)/C=C/c1ccc(OCCOC)cc1Oc1ncc(C(F)(F)F)cc1Cl` gave a melting point of 123 to 125 °C.
`CC(C)(C)OC(=O)NN(Cc1ccccc1)C[C@H](O)[C@H](Cc1ccccc1)NC(=O)OCc1ccccc1` showed a melting point of 142 to 143 °C.
`COc1nc(C)cnc1NS(=O)(=O)c1cccnc1-c1ccc(OC(C)C(=O)O)cc1` (stereo not given) gave a melting point of 149 to 151 °C.
Work on `O=C1N(Cc2ccc3nonc3c2)c2ccccc2C12COc1cc3c(cc12)OCCO3` (stereo not given) yielded a melting point of 164 to 166 °C.
Molecule `CCCCCCC(=O)c1ccc(OCC(=O)O)c(Cl)c1Cl` has a melting point of 104 to 105 °C.
Work on `CC(=O)OC1CCCc2cnc3ccccc3c21` (stereo not given) yielded a melting point of 128 to 129 °C.
With `COCC1CN(c2ccc3cc(OC(C)=O)ccc3c2)C(=O)O1` (stereo not given) the melting point was 110 to 112 °C.
Molecule `O=C(O)c1ccc(NCCc2ccccc2)cc1` has a melting point of 123 to 125 °C.
`CCOC(COc1ccc2c(-c3ccccc3F)noc2c1Cl)OCC` showed a melting point of 59 °C.
In the case of `FC(F)(F)c1cc(Cl)ccc1N=C(Cl)n1cncn1`, the melting point is reported as 165 to 166 °C.
Work on `CN(C)CCOc1cnc(Nc2cc(-c3cccc(-n4ncc5cc(C(C)(C)C)cc(F)c5c4=O)c3CO)nn(C)c2=O)cn1` yielded a melting point of 185 to 190 °C.
`Nc1cccc(NC(=O)NC2N=C(c3ccccc3F)c3ccccc3N(CC(=O)N3CC4CCC(CC4)C3)C2=O)c1` (racemic) showed a melting point greater than 250 °C.
Molecule `CN1CC(CCN2CCN(c3ccc(Br)cc3)CC2)OC1=O` (stereo not given) has a melting point of 125 to 127 °C.
`c1ccc(-c2nc3ccccn3c2-c2ccnc(-c3ccc(N4CCOCC4)cc3)c2)nc1` gave a melting point of 145 °C.
`CCOC(=O)c1cccc(-c2c(OC)cccc2C(=O)O)c1` gave a melting point of 128 to 129 °C.
Work on `O=C1C=C(CC2CCCC(C(F)(F)F)C2)C(=O)c2ccccc21` (stereo not given) yielded a melting point of 65 °C.
Molecule `COC(=O)c1cccc2c1ccn2S(C)(=O)=O` has a melting point of 102 to 104 °C.
Molecule `CC(C)(C)OC(=O)C[C@H](NC(=O)CNC(=O)c1csc(NC(=O)NCc2ccccc2)n1)C(=O)NCc1ccccc1` has a melting point of 123 °C.
Work on `CC1CCCCC1C(=O)Nc1ccc(-c2cnc(-c3ccc(NC(=O)c4cccnc4)cc3)[nH]2)cc1` (stereo not given) yielded a melting point of 226 to 228 °C.
In the case of `CC(C)(C)OC(=O)N1CCC(CCNC(=O)c2noc(-c3ccc(C#N)cc3)n2)CC1`, the melting point is reported as 138 to 139 °C.
`CC(C)(C)c1cc(NC(=O)c2cccc(C(=O)O)c2)cc(C(C)(C)C)c1O` gave a melting point of 253 to 257 °C.
With `Cc1ccc(CCCc2c(C(C)C)nc(C(C)C)c(CO)c2-c2ccc(F)cc2)cc1` the melting point was 79 to 80 °C.
`Cc1c(C(=O)O)oc2cc(S)ccc12` showed a melting point of 230 to 232 °C.
Work on `CCOC(=O)CNC1=NS(=O)(=O)c2ccccc21` yielded a melting point of 166 to 167 °C.
In the case of `Cc1ccc2nc(C)c(CCN3CCN(c4cccc(Cl)c4)CC3)c(=O)n2c1`, the melting point is reported as 127 to 128 °C.
`O=C(NCCc1ccc([N+](=O)[O-])cc1)C(F)(F)F` gave a melting point of 96 to 97 °C.
In the case of `O=c1oc(-c2cccc(-c3ccccc3)c2)cc(O)c1Sc1ccc2ccccc2c1`, the melting point is reported as 183 to 185 °C.
For `COc1cc(OC)c([N+](=O)[O-])nc1N`, the melting point was 195 °C.
With `Cc1nc2c(OCc3ccccc3)nccn2c1C` the melting point was 104 to 110 °C.
For `O=C(Cl)Cc1ccccc1Br`, the melting point was 79 °C.
In the case of `CCCCc1n[nH]c(CCCC)n1`, the melting point is reported as 50.5 to 51.5 °C.
For `CC#CCOc1cc(Oc2cccc(C(C)=O)c2)ncn1`, the melting point was 94 °C.
`NC(=O)c1cc(-c2ccncc2)nnc1Cl` gave a melting point greater than 300 °C.
Work on `O=C(O)c1cncn1C(c1ccccc1)C1CCCCC1` (stereo not given) yielded a melting point of 250 °C.
In the case of `CCn1cc(C(=O)O)c(=O)c2cc(F)c(N3Cc4ccc(C(=O)OC)cc4C3)cc21`, the melting point is reported as greater than 300 °C.
Work on `CSc1ccc(C(=O)Nc2ccccc2)cc1Nc1cccc(C(F)(F)F)c1` yielded a melting point of 169 to 170 °C.
`CCOc1cc(C=CC(C)=O)ccc1O` gave a melting point of 98 to 100 °C.
`CCOC(=O)c1ccc(Sc2cc3c(cc2C(C)C)C(C)(C)CCC3(C)C)cc1` gave a melting point of 99 to 100 °C.
Molecule `Cc1ccc([N+](=O)[O-])cc1S(=O)(=O)n1nnc2ccccc21` has a melting point of 169 to 170 °C.
Work on `O=C(O)CCCCCCCn1cnc(-c2ccccc2)c1-c1ccccc1` yielded a melting point of 130 °C.
`COc1ccc2c(CC3=C(CC(=O)O)CCCC3=O)cccc2c1C(F)(F)F` showed a melting point of 69 to 71 °C.
For `CCCCOCc1cnc2nc(N)[nH]c(=O)c2n1`, the melting point was greater than 300 °C.
With `OCC1OC(n2cnc3c(NCCc4c[nH]c5ccccc45)ncnc32)C(O)C1O` (stereo not given) the melting point was 187 °C.
Work on `COC(=O)C1=C2c3sccc3SC(Cl)CN2CC(c2ccccc2)=C1` (stereo not given) yielded a melting point of 192 to 196 °C.
`CCc1c(C(=O)NN2CCCCC2)nn(-c2ccc(Cl)cc2Cl)c1-c1ccc(Br)cc1` gave a melting point of 112 to 115 °C.
In the case of `CC(=O)Oc1cc2c(c(OC(C)=O)c1)C1CCC3(C)C(O)CCC3C1CC2` (stereo not given), the melting point is reported as 210 to 211 °C.
Molecule `CCc1cc2c(C(=O)O)ccc(OC)c2o1` has a melting point of 215 to 216 °C.
For `CCOC(=O)C(=CNc1cccc(C(F)(F)F)n1)C(=O)OCC`, the melting point was 125 to 128 °C.
`O=C(NCCc1ccccn1)c1ccccc1-c1ccccc1CN1C(=O)c2ccccc2C1=O` showed a melting point of 155 °C.
Molecule `Cc1cccc(N2Cc3ccccc3P2(=O)C(C)C)c1` (stereo not given) has a melting point of 112 to 113 °C.
`CC(C)(C)c1ccc(OC(=O)n2c3c(c(=O)n(C4CCCCO4)c2=O)CCC3)cc1` (stereo not given) gave a melting point of 135 °C.
For `CCCCC1(C(=O)N[C@@H](Cc2ccc(NC(=O)c3c(Cl)cccc3Cl)cc2)C(=O)OC)CCCC1`, the melting point was 193 to 196 °C.
For `O=C1C(=O)c2ccccc2C2=C1SCC1(CCN(c3cnccn3)CC1)O2`, the melting point was 255 to 256 °C.
In the case of `Cc1ccc(N=CN(C)SN(C)c2ccccc2)c(C)c1`, the melting point is reported as 72 to 73.5 °C.
`CCN(C(=O)c1c(Cl)cccc1[Si](C)(C)C)C(OC)C(C)(C)C` (stereo not given) gave a melting point of 82 to 83 °C.
Work on `CCOc1nc(NCc2ccco2)nc(Nc2ccc(OC)c(OC)c2)n1` yielded a melting point of 100 to 102 °C.
In the case of `FC(F)(F)c1cccc(-c2c[nH]c(C3CCN(c4ncnc5[nH]ncc45)CC3)n2)c1`, the melting point is reported as 281 °C.
Molecule `Oc1cccnc1CC1(O)CN2CCC1CC2` (stereo not given) has a melting point of 270 to 272 °C.
`O=C(Nc1ccc2ccc(-c3ccc(Cl)cc3)nc2n1)c1cccc(Br)c1` gave a melting point of 220 to 224 °C.
`O=S1(=O)N=C(c2cccc(Cl)c2)c2ccccc21` showed a melting point of 149 to 150 °C.
With `O=C(Nc1ccc(OS(=O)(=O)c2cccc(C(F)(F)F)c2)cc1[N+](=O)[O-])NS(=O)(=O)Cl` the melting point was 152 °C.
With `CCOC(=O)c1cc2c(s1)CCC2=O` the melting point was 54 to 55 °C.
`COc1c(C(=O)O)cc([N+](=O)[O-])c2ccccc12` gave a melting point of 102 to 104 °C.
For `COc1cccc(CN2Cc3cc(OC)c(OCc4ccccc4)cc3C(OC)C2)c1` (stereo not given), the melting point was 96 to 97 °C.
Molecule `CCCn1cc(-c2ccc3nnn(Cc4ccc5ncccc5c4)c3n2)cn1` has a melting point of 128 to 130 °C.
For `N#Cc1ccsc1-c1[nH]c(=O)c(-c2ccccc2)cc1C(=O)O`, the melting point was 255 to 257 °C.
`CC(=O)NC[C@H]1CN(c2ccc(N3C[C@H]4CN(C(=O)COCc5ccccc5)C[C@H]4C3)c(F)c2)C(=O)O1` showed a melting point of 138 to 140 °C.
`COCC1CN(c2ccc(C3CCC(=O)CC3)cc2)C(=O)O1` (racemic) gave a melting point of 114 to 116 °C.
`CN(C)c1nc2sc3c(NCc4cccnc4)ncnc3c2c2c1COC(C)(C)C2` showed a melting point of 250 to 252 °C.
`O=C(NCC(O)c1ccccc1)c1ccc2n1Cc1ccccc1N(C(=O)COc1ccc(Cl)cc1)C2` (stereo not given) gave a melting point of 157 to 158 °C.
For `COc1ccc(C(=O)CC(Cc2ccccc2)C(=O)O)cc1` (single isomer, unassigned; (+)), the melting point was 93 °C.
Molecule `CC1(C)SC(c2ccc([N+](=O)[O-])o2)NC1C(=O)O` (stereo not given) has a melting point of 147 to 148 °C.
In the case of `O=C(CCc1nc(-c2ccc(Cl)cc2)co1)OCc1ccccc1`, the melting point is reported as 66 to 67 °C.
With `O=C1NC(C(=O)NCCO[N+](=O)[O-])C(Cc2ccccc2)S1` (stereo not given) the melting point was 123 to 124 °C.
Molecule `COc1ccc(-c2nc(CNc3ccccc3)nc3cc(OC)c(OC)cc23)cc1OC` has a melting point of 199 to 200 °C.
In the case of `C=CCN1Cc2nc3c(cnn3CCC#CC)c(N)c2C1=O`, the melting point is reported as 192 to 194 °C.
`CCCn1cc(Cc2ccc(C(=O)NS(=O)(=O)c3ccccc3C)cc2OC)c2cc(CCNC(=O)N3CCOCC3)ccc21` showed a melting point of 117 to 123 °C.
For `COC(=O)C(C(=O)C(C)C)=C(N)c1ccc(F)cc1`, the melting point was 85.8 to 86.6 °C.
`CCCCCCc1nc2cc3c(cc2[nH]1)NC(=O)C3(C)C` gave a melting point of 233 to 234 °C.
With `COC(=O)C1Cc2c(cccc2-c2ccccc2)CN1` (stereo not given) the melting point was 149 to 150 °C.
Work on `Cc1ccccc1C(=O)Nc1ncc([N+](=O)[O-])s1` yielded a melting point of 228 to 230 °C.
Molecule `Cn1ncc2[nH]c3cccc(-c4ccc(O)cc4)c3c(=O)c21` has a melting point greater than 300 °C.
`COc1cc(OC)cc(C(=O)N2CCN(C(=O)C3=Cc4cc(OC)c(OC)cc4CC3)CC2)c1` showed a melting point of 166 to 167 °C.
For `CCNC(=S)NC1=Nc2ccccc2CS1`, the melting point was 191 to 196 °C.
With `Cn1ccnc1Sc1ccc([N+](=O)[O-])cc1F` the melting point was 97 to 99 °C.
`COc1nn(C(=S)Oc2ccccc2)c(=O)n1N` gave a melting point of 158 °C.
For `O=C(O)CCCc1cc2cc(C(F)(F)F)ccc2n1S(=O)(=O)c1ccc2c(c1)CCO2`, the melting point was 144 to 149 °C.
Molecule `NCCc1c[nH]c2ccc(C(N)=O)cc12` has a melting point of 173 to 176 °C.
In the case of `COc1cccc(C(N)=O)c1N`, the melting point is reported as 140 to 141 °C.
With `c1ccc(C(c2ccccc2)N2CCN(CCCn3cnc4ccccc43)CC2)cc1` the melting point was 132 °C.
Work on `CN1CC(CCN(C)c2ccccc2)N(C)c2nc3ccccc3n2C1=O` (stereo not given) yielded a melting point of 74 to 90 °C.
With `COc1ccc(Cl)cc1-c1c(N)c(=O)[nH]c2cc(Cl)cc(Cl)c12` the melting point was 284 to 287 °C.
With `Cc1cc(NS(=O)(=O)c2ccc(Nc3nc(OCC4CCCCC4)c4nc[nH]c4n3)cc2)nc(C)n1` the melting point was 233 °C.
For `CNc1nc(=O)c2ccccc2n1Cc1ccc(F)cc1`, the melting point was 251 to 255 °C.
`N#Cc1cc2cc(Br)ccc2[nH]c1=O` gave a melting point of 308 to 311 °C.
Molecule `c1ccc(C2OC3(CCNCC3)c3ccccc32)cc1` (stereo not given) has a melting point of 99 to 107 °C.
